Assays:
LNCaP cells = assay: Fluorescence/confocal microscopy labeling of PSMA-expressing cells; type: cell-based; conditions: PSMA-expressing prostate cancer cells; fluorescence microscopy
Method: (§1) These compounds have been subsequently derivatized with amine-reactive fluorescent dyes (FIG. 9) to specifically label PSMA-expressing prostate cancer cells. […] Confocal microscopy was conducted on both LNCaP and PC3 prostate cancer cells after treatment with L6-V1-21 and propidium iodide.
(§2) While propidium iodide stained the nuclei of both cell lines, only the surface of the PSMA-expressing LNCaP 6 cells were fluorescently labeled with L6-V1-21. The intensely labeled sites on these LNCaP cells are hypothesized to be locations in which PSMA has aggregated.
(§3) To confirm that LW-54-F5EX was specific for PSMA-expressing cells, both LNCaP and PC3 cells were treated with this compound. While DAPI (4′,6-diamidino-2-phenylindole) stained nuclear DNA in both cell lines, only LNCaP cells were fluorescently labeled with LW-54-F5EX.
(§4) In that experiment, both LNCaP and PC3 cells were treated with LW-54-5FAMX. While DAPI (4′,6-diamidino-2-phenylindole) stained nuclear DNA in both cell lines, only LNCaP cells were fluorescently labeled with LW-54-5FAMX.

PC3 cells = assay: Fluorescence/confocal microscopy labeling of cells that do not express PSMA (negative control); type: cell-based; conditions: fluorescence microscopy
Method: as §1, §2, §3, §4

purified PSMA = molecular target: T1, purified PSMA (Homo sapiens, UniProt Q04609); assay: PMSA Inhibition Assay (HPLC, PAB-Glu-γ-Glu substrate); type: biochemical; conditions: for IC50: read-out: IC50 against PSMA; for inhibitory potency / affinity for PSMA (in words): purified PSMA from LNCaP cells
T1 construct: against purified PSMA from LNCaP cells by our published method; endogenous in cells; host or cells: LNCaP cells
Method: Adapted from, Maung, J.; Mallari, J. P.; Girtsman, T. A.; Wu, L. Y.; Rowley, J. A.; Santiago, N. M.; Brunelle, A.; Berkman, C. E. Probing for a Hydrophobic a Binding Register in Prostate-Specific Membrane Antigen with Phenylalkylphosphonamidates. […] Med. Chem. 2004, 12, 4969.
Working solutions of the substrate (N-[4-(phenylazo)benzoyl]-glutamyl-g-glutamic acid, PAB-Glu-γ-Glu) and all inhibitors were made in TRIS buffer (50 mM, pH 7.4). Working solutions of purified PSMA were appropriately diluted in TRIS buffer (50 mM, pH 7.4) to provide from 15% to 20% conversion of substrate to product in the absence of inhibitor. A typical incubation mixture (final volume 250 μL) was prepared by the addition of either 25 μL of an inhibitor solution or 25 μL TRIS buffer (50 mM, pH 7.4) to 175 μL TRIS buffer (50 mM, pH 7.4) in a test tube. A volume of the 25 μL PAB-Glu-γ-Glu (100 μM) was added to the above solution. The enzymatic reaction was initiated by the addition of 25 μL of the PSMA working solution. In all cases, the final concentration of PAB-Glu-γ-Glu was 10 μM while the enzyme was incubated with five serially-diluted inhibitor concentrations to provide a range of inhibition from 10% to 90% inhibition. The reaction was allowed to proceed for 15 min with constant shaking at 37° C. and was terminated by the addition of 25 μL methanolic TFA (2% trifluoroacetic acid by volume in methanol) followed by vortexing. The quenched incubation mixture was quickly buffered by the addition of 25 μL K2HPO4 (0.1 M), vortexed, and centrifuged (10 min at 7000 g). An 85 μL aliquot of the resulting supernatant was subsequently quantified by HPLC. IC50 values were calculated using KaleidaGraph 3.6 (Synergy Software).
PABGγG and its hydrolytic product (PABG) were separated and quantified using an analytical reversed-phase HPLC column (Lichrosphere C18 5 μm, 150×4.6 mm; Phenomenex, Torrence, Calif.) with a mobile phase consisting of ACN/potassium phosphate [25 mM, pH 2.0 (adjusted with H3PO4)] at a respective volume ratio of 40:60.

PSMA [1] = molecular target: T2, PSMA (Homo sapiens, UniProt Q04609); assay: Time-dependence and reversibility of PSMA inhibition (100-fold dilution of inhibited enzyme); type: biochemical; conditions: for reversibility of PSMA inhibition: recovery of PSMA activity after 100-fold dilution of inhibited enzyme
PSMA [2] = molecular target: T2, PSMA; assay: Inhibitor induced PSMA homodimer formation (Western blots); type: biochemical; conditions: treatment of PSMA with inhibitor
Description: As shown in the representative example in FIG. 6, covalent PSMA dimer formation mediated by T33 is both concentration dependent and time-dependent. […] Although we have not determined the mechanism of inhibition for T33, L36 and MP1D, it is clear that these agents represent a unique class of inhibitors of PSMA that may be used as covalent delivery vehicles specific for PSMA-expressing cancer cells. Based upon a cursory literature review, this is the first design and preparation of irreversible covalent modifiers of PSMA.

MMP-2 = molecular target: T3, MMP-2 (Homo sapiens, UniProt P08253); assay: MMP-2 inhibition; type: biochemical; conditions: concentrations up to 10 μM
T3 sequence (P08253 110-660): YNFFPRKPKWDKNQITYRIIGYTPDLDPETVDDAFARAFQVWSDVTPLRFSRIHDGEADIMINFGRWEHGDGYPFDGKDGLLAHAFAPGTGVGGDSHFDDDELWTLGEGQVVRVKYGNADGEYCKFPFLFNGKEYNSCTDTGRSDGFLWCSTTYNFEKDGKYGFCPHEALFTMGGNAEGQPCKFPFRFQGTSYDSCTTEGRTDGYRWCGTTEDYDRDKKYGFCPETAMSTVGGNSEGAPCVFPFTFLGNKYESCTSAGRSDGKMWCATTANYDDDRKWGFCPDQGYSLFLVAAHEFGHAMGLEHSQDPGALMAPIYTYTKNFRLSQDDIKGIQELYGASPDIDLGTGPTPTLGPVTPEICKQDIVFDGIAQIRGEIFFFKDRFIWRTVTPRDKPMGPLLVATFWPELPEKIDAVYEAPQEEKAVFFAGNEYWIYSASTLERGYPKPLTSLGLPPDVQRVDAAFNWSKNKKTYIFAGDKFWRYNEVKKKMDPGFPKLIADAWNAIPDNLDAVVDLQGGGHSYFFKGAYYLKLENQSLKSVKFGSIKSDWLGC

[3] = molecular target: matrix metalloproteinase-9 (MMP-9) (Homo sapiens, UniProt P14780); assay: MMP-9 inhibition (specificity study); type: biochemical; conditions: preliminary study; read-out: Ki against MMP-9
Method: To determine that the design of the phosphoramidate inhibitors of the invention is specific to PSMA, a preliminary study was conducted with representative compounds from the T33 analog library (FIG. 1) with matrix metalloproteinase-9 (MMP-9). The MMP enzymes are zinc-dependent endopeptidases involved in the degradation of extracellular matrices.

T2 sequence (Q04609 whole entry): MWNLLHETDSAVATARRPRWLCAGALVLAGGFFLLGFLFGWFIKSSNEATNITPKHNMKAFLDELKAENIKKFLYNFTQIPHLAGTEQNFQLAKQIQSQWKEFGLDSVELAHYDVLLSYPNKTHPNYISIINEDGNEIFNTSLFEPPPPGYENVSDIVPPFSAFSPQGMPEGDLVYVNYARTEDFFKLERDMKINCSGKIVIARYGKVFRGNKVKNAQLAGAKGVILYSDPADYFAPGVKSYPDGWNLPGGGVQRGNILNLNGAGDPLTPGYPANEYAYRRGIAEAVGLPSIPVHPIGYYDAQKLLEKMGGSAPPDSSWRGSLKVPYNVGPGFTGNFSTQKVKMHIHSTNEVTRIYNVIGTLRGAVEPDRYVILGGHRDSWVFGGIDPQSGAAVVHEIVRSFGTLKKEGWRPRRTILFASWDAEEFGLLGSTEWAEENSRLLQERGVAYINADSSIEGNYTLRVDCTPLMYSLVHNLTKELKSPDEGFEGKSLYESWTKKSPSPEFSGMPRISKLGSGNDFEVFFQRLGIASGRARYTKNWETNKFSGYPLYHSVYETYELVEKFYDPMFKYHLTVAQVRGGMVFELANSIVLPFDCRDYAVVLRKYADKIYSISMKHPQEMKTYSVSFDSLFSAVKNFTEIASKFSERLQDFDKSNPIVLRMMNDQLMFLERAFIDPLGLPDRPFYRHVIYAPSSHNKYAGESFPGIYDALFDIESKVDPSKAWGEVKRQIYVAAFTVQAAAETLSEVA
T1 sequence (Q04609 whole entry): as above
matrix metalloproteinase-9 (MMP-9), sequence (P14780 94-707, species assumed): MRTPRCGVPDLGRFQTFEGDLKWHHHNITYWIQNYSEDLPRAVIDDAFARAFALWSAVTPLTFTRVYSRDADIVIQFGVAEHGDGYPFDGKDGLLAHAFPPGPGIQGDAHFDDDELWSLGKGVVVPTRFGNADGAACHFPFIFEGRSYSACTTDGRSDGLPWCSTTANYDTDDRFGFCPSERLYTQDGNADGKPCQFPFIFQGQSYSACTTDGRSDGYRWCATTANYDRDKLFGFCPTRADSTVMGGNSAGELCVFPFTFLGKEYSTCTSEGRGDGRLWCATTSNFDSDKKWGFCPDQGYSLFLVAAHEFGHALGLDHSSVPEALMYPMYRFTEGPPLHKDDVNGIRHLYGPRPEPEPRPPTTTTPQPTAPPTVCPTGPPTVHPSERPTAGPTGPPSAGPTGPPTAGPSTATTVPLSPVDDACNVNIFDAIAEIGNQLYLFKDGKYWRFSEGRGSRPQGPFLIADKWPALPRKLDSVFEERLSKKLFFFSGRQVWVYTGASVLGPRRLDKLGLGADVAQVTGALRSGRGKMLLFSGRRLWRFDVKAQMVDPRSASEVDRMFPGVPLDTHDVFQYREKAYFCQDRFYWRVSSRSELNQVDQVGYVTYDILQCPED

For `O=C1C=CC2C(=C1)Oc1cc(O)ccc1C2c1ccc(NC(=O)CSCCC(=O)N[C@@H](CCC(=O)N[C@@H](COP(=O)(O)N[C@@H](CCC(=O)O)C(=O)O)C(=O)O)C(=O)O)cc1C(=O)O` (stereo partly drawn) [LW-54-F5EX, N-{3-[(2-{[3-carboxy-4-(6-hydroxy-3-oxo-9,9a-di hydro-3H-xanthen-9-yl)phenyl]amino}-2-oxoethyl)thio]propanoyl}-L-γ-glutamyl -O-[{[(1S)-1,3-dicarboxypropyl]amino}(hydroxy)phosphoryl]-L-serine], the “fluorescent labeling of LNCaP cells” value (LNCaP cells) was “extensive cell-surface labeling” and the “fluorescent labeling of PC3 cells” value (PC3 cells) was “no green fluorescent labeling”.
For `O=C1C=CC2C(=C1)Oc1cc(O)ccc1C2c1ccc(NC(=S)N[C@@H](COP(=O)(O)N[C@@H](CCC(=O)O)C(=O)O)C(=O)O)cc1C(=O)O` (stereo partly drawn) [Compound L6-V1-21, N-[{(2S)-2-carboxy-2-[({[3-carboxy-4-(6-hydroxy-3-oxo-9,9a-dihydro-3H-xanthen-9-yl)phenyl]amino}carbonothioyl)amino]ethoxy} (hydroxy)phosphoryl]-L-glutamic acid], the IC50 (purified PSMA) was 85 nM, the “fluorescent labeling of LNCaP cells” value (LNCaP cells) was “extensive cell-surface labeling” and the “fluorescent labeling of PC3 cells” value (PC3 cells) was “no green fluorescent labeling”.
For `O=C(O)CC[C@H](NP(=O)(O)OC[C@H](NC(=O)c1ccccc1)C(=O)O)C(=O)O` [Compound T33, N-{[(2S)-2-(benzoylamino) -2-carboxyethoxy](hydroxy)phosphoryl}-L-glutamic acid], the “inhibitory potency / affinity for PSMA (in words)” value (“inhibitory potency / affinity” below) (purified PSMA) was “superior inhibitory potency”, the IC50 (purified PSMA) was < 50 nM and the “time-dependence of PSMA inhibition” value (PSMA [1]) was “time-dependent PSMA inhibition”. The “reversibility of PSMA inhibition” value (PSMA [1]) was “irreversible”, the “covalent PSMA homodimer formation” value (PSMA [2]) was “formation of covalent PSMA homodimers” and the “inhibition of MMP-2” value (MMP-2) was “no inhibition”.
With `NCc1ccc(C(=O)N[C@@H](COP(=O)(O)N[C@@H](CCC(=O)O)C(=O)O)C(=O)O)cc1` [LW-39, N-{[(2S)-2-{[4-(aminomethyl)benzoyl]amino}-2-carboxyethoxy](hydroxy)phosphoryl}-L-glutamic acid] the “reversibility of PSMA inhibition” value (PSMA [1]) was “irreversible inhibitors”.
`O=C(O)CC[C@H](NP(=O)(O)OCCCCc1ccccc1)C(=O)O` [MP1D, N-[hydroxy(4-phenylbutoxy)phosphoryl]-L-glutamic acid] was tested, and the “inhibitory potency / affinity” value (purified PSMA) was “considerable affinity is maintained” and the “reversibility of PSMA inhibition” value (PSMA [1]) was “irreversible inhibition”.
For `CN(C(=O)c1ccccc1)[C@@H](COP(=O)(O)N[C@@H](CCC(=O)O)C(=O)O)C(=O)O` [Compound L36, N-[{(2S)-2-[benzoyl(methyl)amino]-2-carboxyethoxy} (hydroxy)phosphoryl]-L-glutamic acid], the “inhibitory potency / affinity” value (purified PSMA) was “superior inhibitory potency”, the “reversibility of PSMA inhibition” value (PSMA [1]) was “irreversible” and the “covalent PSMA homodimer formation” value (PSMA [2]) was “formation of covalent PSMA homodimers”.
`O=C(O)CC[C@H](NP(=O)(O)OCc1ccc(-c2ccccc2)cc1)C(=O)O` [NC-2-29, N-[(biphenyl-4-ylmethoxy) (hydroxy)phosphoryl]-L-glutamic acid] gave a Ki [3] of 5 mM.
For `O=C(O)CC[C@H](NP(=O)(O)OCC(CCc1ccccc1)C(=O)O)C(=O)O` (stereo partly drawn) [MP1E, N-[(2-carboxy-4-phenylbutoxy)(hydroxy)phosphoryl] -L-glutamic acid], the “reversibility of PSMA inhibition” value (PSMA [1]) was “irreversible”.

Reference: patent US7696185B2, “Peptidomimetic inhibitors of PSMA, compounds comprising them, and methods of use” (Cancer Targered Technology LLC, priority 2006, dated 2010)
